Laboratory results reported in PMC2360155, “Novel retinoic acid metabolism blocking agents have potent inhibitory activities on human breast cancer cells and tumour growth” (British Journal of Cancer, 2007).
pIC50: −log10 of the molar value.

Tests used:
CK 8/18 = assay: Western immunoblotting for CK 8/18 in MCF-7 and T47D cells; format: cell-based, human; details: 6 days; for Increase in expression of CK 8/18 compared with control: 1 and 5 μM, MCF-7 and T47D cells; for Effect on expression of CK 8/18 (in words): 5 μM, MCF-7 cells
Experimental: At the end of the treatment, cells were scrapped and collected by washing with ice-cold PBS in a centrifuge tube. Cells were centrifuged at 2500 r.p.m. for 10 min, the pellet was again washed with ice-cold PBS and centrifuged. The cell pellet was then suspended in chilled cell lysis buffer (0.1 M Tris–HCl, 0.5% Triton X-100, protease inhibitor cocktail) and sonicated on ice for 10–15 s. The homogenate was kept on ice for 30 min and then centrifuged at 13 000 r.p.m. for 30 min. The supernatant was used as cell lysate. The cell lysates were stored at −80°C. Protein concentration of the cell lysates was determined using Bio-Rad protein assay reagents.
Protein lysates from MCF-7 and T47D cells were subjected to sodium dodecyl sulphate–polyacrylamide gel electrophoresis (SDS–PAGE) and immunoblotted for different proteins. Equal amounts of protein (25–50 μg) were subjected to SDS–PAGE at 60 V for 3 h using the mini PROTEAN3 electrophoresis module assembly (Bio-Rad, Hercules, CA, USA), and transferred to nitrocellulose membranes (Hybond ECL, Amersham). Immunodetections were carried out using antibodies against CK 8/18 (1° antibody – 1 : 8000 in 10% milk PBST), E-cadherin (1° antibody – 1 : 1000 in 5% milk in TBST) and ER-α (1° antibody – 1 : 200 in 5% milk PBST) purchased from Santa Cruz Biotechnology Inc. Antibodies against PARP (1° antibody – 1 : 1000 in 5% milk TBST), cyclin- D1 (1° antibody – 1 : 2000 in 10% milk TBST), caspase-9 (1° antibody – 1 : 1000 in 10% milk TBST) and BAD (1° antibody – 1 : 1000 in 5% BSA TBST) were obtained from Cell Signaling Technology. Antibody for β-actin was obtained from Calbiochem (CA, USA). Secondary anti-mouse IgG HRP conjugate antibody was purchased from Calbiochem and Bio-Rad. Secondary anti-rabbit IgG HRP conjugate antibody was bought from Bio-Rad as well as from Kirkegaard and Perry laboratories (Gaithersburg, MD, USA). Immunoreactive bands were visualised using the enhanced chemiluminescence detection reagents and analysis system (Amersham Bioscences) according to the manufacturer's instructions and quantified by densitometry using ImageQuant software version 5.
The effects of these agents on the expression levels of markers associated with differentiation (CK 8/18 and ER-α) were investigated following established procedures ([Jing et al, 1996]; [Korsching et al, 2002]; [Kim and Freeman, 2003]; [Woelfle et al, 2004]). […] At the end of the treatment, cell lysates were prepared and the expression of cytoskeletal proteins CK 8/18 were evaluated by Western immunoblotting. […] Unexpectedly, VN/66-1 and VN/69-1 caused downregulation in the expression of CK 8/18.
Numbers below the blot show fold increase in expression of the protein as analysed by ImageQuant densitometry analysis. […]

RARβ = target: T1, RARβ (Mus musculus, UniProt P22605); assay: Retinoid receptor competition binding assay, RARβ; details: competition with 1.0 nM [3H]-all-trans-RA
T1 construct: expressed in transfected cells; host or cells: CV-1 cells
T1 sequence (P22605 1-448 isoform P22605-3): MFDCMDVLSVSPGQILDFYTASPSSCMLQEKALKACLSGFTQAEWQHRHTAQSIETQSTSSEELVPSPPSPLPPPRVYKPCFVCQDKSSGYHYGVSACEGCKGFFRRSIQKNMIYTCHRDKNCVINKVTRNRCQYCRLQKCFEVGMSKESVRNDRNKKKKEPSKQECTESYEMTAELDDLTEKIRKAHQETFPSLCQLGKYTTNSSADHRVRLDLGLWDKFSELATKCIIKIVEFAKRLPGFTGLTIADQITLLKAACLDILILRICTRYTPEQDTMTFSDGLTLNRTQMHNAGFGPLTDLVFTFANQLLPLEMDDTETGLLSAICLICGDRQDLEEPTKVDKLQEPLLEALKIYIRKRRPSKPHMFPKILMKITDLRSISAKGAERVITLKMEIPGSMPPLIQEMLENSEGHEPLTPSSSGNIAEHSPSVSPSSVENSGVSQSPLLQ

MCF-7 cells = tested on: MCF-7 cells; parameters: method as in Patel et al. (2004); details: inhibition of cell proliferation by 50%; ref Patel et al. (2004); read-out: Cellular IC50, MCF-7; cited from earlier work
T47D cells = assay: Cell cycle analysis by flow cytometry (PI), T47D; format: cell-based, human; details: 5 μM, 6 days (4-HPR 4 days)
Experimental: MCF-7 and T47D cells were plated in T-25 flasks and allowed to adhere for about 18 h. The cells were then synchronised by growing them in low-serum OPTI-MEM I medium for 2 days. […] After 6-day treatment, the cells were trypsinised, washed twice with PBS, centrifuged at 2500 r.p.m. to obtain a cell pellet. The cells (about 1–2 × 10^6) were fixed with 3 ml of 70% ethanol (by adding drop-wise and taking care that the cells are not clumped together). Cells were kept at −20°C until further analysis (at least overnight). Next, cells (∼1–2 × 10^6) were stained with 1 ml of propidium iodide (PI) (50 μg ml^−1)/RNase (100 μg ml^−1) solution and after about half an hour the fluorescence of stained nuclei (15 000 events) was analysed by flow cytometry (Becton Dickinson FACScan Instrument and quantification by Modfit LT version 3.1 software) with excitation wavelength of 488 nm. The percentage of G1, S, G2/M and sub-G1 (apoptotic cells) in the population of treated and untreated cells were determined.

CRABPI = target: T2, CRABPI (Mus musculus, UniProt P62965); assay: CRABP competition binding assay, CRABPI; details: competition with [3H]-all-trans-RA; read-out: CRAPBI IC50
T2 construct: Wild-type full-length cDNAs for mouse CRABPI and CRABPII were subcloned into the prokaryotic expression vector pRSETB; pRSETB vector fusion leader (purified on Ni-NTA, so a His tag); made in house; host or cells: Escherichia coli BL21(DE3)pLys
T2 sequence (P62965 whole entry, the tested form may be a part): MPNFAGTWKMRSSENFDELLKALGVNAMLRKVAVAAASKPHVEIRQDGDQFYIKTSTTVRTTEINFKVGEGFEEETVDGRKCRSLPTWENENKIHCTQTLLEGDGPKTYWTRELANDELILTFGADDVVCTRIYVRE
Experimental: IC50 values were calculated as described above in the RAR binding studies.

SMILES | Increase in expression of CK 8/18 compared with control (CK 8/18) | pIC50 (RARβ) | pIC50 (MCF-7 cells) | G2/M (%) (T47D cells) | Go/G1 (%) (T47D cells) | S (%) (T47D cells) | Sub-G1 (%) (T47D cells) | pIC50 (CRABPI) | Effect on expression of CK 8/18 (in words) (CK 8/18)
CC1=C(/C=C/C(C)=C/C=C/C(C)=C/C(=O)O)C(C)(C)CCC1n1ccnc1 (stereo not drawn) [VN/14-1] | 2–3 fold | 6.70 | 6.31 | 20.85±3.75% | 77.98±2.56% | 1.18±1.0% | 22.38±2.95% | < 6.30 | –
CC1=C(/C=C/C(C)=C/C=C/C(C)=C/C(=O)O)C(C)(C)CCC1 [ATRA, all-trans-retinoic acid, reference compound] | 2–3 fold | – | 6.23 | 13.03±4.06% | 83.89±0.96% | 3.1±1.3% | 17.12±4.06% | – | –
CC1=C(/C=C/C(C)=C/C=C/C(C)=C\C(=O)Nc2ccc(O)cc2)C(C)(C)CCC1n1ccnc1 (stereo not drawn) [VN/69-1] | – | < 6.00 | 6.22 | 21.01±0.99% | 78.99±0.99% | 0% | 24.34±1.24% | < 6.30 | downregulation
CC1=C(/C=C/C(C)=C/C=C/C(C)=C/C(=O)Nc2ccc(O)cc2)C(C)(C)CCC1n1ccnc1 (stereo not drawn) [VN/66-1] | – | < 6.00 | 6.23 | 19.57±0.21% | 80.44±0.20% | 0% | 26.41±1.18% | < 6.30 | downregulation
